From patent US8883779B2, “Oxazine derivatives and a pharmaceutical composition for inhibiting BACE1 containing them” (Shinogi & Co., Ltd., priority 2011, dated 2014)
Blank lines part the entries; values can stand above or below the compound they belong to.

Experiments:
[1] = biological target: T1, CYP3A4 enzyme (enzyme expressed in Escherichia coli) (Homo sapiens, UniProt P08684); experiment: CYP3A4 fluorescent MBI test; format: in vitro ADME; conditions: 7-BFC substrate, pre-reaction time 0 or 30 minutes
T1 construct: host or cells: Escherichia coli
T1 sequence (P08684 whole entry): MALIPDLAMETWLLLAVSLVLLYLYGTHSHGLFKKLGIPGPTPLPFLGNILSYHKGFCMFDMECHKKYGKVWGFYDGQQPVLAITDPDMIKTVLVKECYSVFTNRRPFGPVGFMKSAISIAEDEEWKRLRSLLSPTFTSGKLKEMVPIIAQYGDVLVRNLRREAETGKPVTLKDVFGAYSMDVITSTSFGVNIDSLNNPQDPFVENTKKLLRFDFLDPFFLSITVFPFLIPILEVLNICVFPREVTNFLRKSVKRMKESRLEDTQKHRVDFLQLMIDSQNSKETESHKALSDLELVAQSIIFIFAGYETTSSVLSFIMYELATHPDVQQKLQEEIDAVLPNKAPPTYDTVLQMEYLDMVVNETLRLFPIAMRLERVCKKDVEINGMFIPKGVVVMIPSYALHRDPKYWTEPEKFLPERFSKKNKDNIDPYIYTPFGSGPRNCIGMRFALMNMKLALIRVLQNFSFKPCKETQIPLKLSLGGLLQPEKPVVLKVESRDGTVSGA
Procedure: The CYP3A4 fluorescent MBI test is a test of investigating enhancement of CYP3A4 inhibition of a compound by a metabolism reaction. 7-benzyloxytrifluoromethylcoumarin (7-BFC) is debenzylated by the CYP3A4 enzyme (enzyme expressed in Escherichia coli) and 7-hydroxytrifluoromethylcoumarin (7-HFC) is produced as a fluorescing metabolite. The test is performed using 7-HFC production reaction as an index.
The reaction conditions are as follows: substrate, 5.6 μmol/L 7-BFC; pre-reaction time, 0 or 30 minutes; substrate reaction time, 15 minutes; reaction temperature, 25° C. […]
An enzyme in a K-Pi buffer (pH 7.4) and a compound of the present invention solution as a pre-reaction solution were added to a 96-well plate at the composition of the pre-reaction. […] Fluorescent values of 7-HFC as a metabolite were measured in each index reaction plate with a fluorescent plate reader. […]
The sample adding DMSO to a reaction system instead of compound of the present invention solution was adopted as a control (100%) because DMSO is used as a solvent to dissolve a compound of the present invention. Remaining activity (%) was calculated at each concentration of the compound of the present invention added as the solution, and IC50 was calculated by reverse-presumption by a logistic model using a concentration and an inhibition rate. […]

Recombinant human BACE1 = biological target: T2, Recombinant human BACE1 (Homo sapiens, UniProt P56817); experiment: Assay of BACE1 inhibiting activity; format: biochemical; conditions: Recombinant human BACE1 7.4 nmol/L, substrate peptide 18 nmol/L, pH 5.0, 30° C., 3.5 hours; read-out: 50% inhibitory concentration against the enzymatic activity (IC50)
T2 construct: purchased R&D Systems
T2 sequence (P56817 46-501): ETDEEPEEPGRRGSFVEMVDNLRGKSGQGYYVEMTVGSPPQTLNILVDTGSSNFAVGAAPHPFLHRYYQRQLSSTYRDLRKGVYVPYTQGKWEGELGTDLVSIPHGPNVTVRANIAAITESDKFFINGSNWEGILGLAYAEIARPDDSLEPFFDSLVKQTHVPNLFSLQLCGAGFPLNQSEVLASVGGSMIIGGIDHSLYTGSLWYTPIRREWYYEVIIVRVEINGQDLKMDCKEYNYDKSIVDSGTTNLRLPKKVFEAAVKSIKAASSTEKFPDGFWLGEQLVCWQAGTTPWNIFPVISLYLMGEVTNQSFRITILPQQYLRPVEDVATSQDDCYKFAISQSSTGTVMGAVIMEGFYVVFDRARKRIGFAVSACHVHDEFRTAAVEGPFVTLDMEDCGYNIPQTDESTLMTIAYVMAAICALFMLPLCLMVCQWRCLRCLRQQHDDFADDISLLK
Procedure: 48.5 μL of substrate peptide solution (Biotin-XSEVNLDAEFRHDSGC-Eu: X=ε-amino-n-capronic acid, Eu=Europium cryptate) was added to each well of 96-hole half-area plate (a black plate: Costar), and after addition of 0.5 μl of the compound of the present invention (DMSO solution) and 1 μl of Recombinant human BACE1(R&D Systems), the reaction mixture was incubated at 30° C. for 3.5 hours. The substrate peptide was synthesized by reacting Cryptate TBPCOOH mono SMP (CIS bio international) with Biotin-XSEVNLDAEFRHDSGC (Peptide Institute, Inc.). The final concentrations of the substrate peptide and Recombinant human BACE1 were adjusted to 18 nmol/L and 7.4 nmol/L, respectively, and the reaction was performed in sodium acetate buffer (50 mmol/L sodium acetate, pH 5.0, 0.008% Triton X-100).
After the incubation for reaction, 50 μl of 8.0 μg/ml Streptavidin-XL665 (CIS bio international) dissolved in phosphate buffer (150 mmol/L K2 HPO4—KH2 PO4, pH 7.0, 0.008% Triton X-100, 0.8 mol/L KF) was added to each well and left stand at 30° C. for 45 minutes. After then, fluorescence intensity was measured (excitation wavelength: 320 nm, measuring wavelength: 620 nm and 665 nm) using Wallac 1420 multilabel counter (Perkin Elmer life sciences).

[2] = Solubility test (turbidity, JP-I / JP-II medium); format: physicochemical; conditions: pH 6.8, aqueous buffer, kinetic from dmso stock, 2% DMSO solution, turbidity after 4 hours, read-out: solubility assessed by 3 stages
[3] = Metabolism stability test; format: in vitro ADME; conditions: human liver microsomes 0.5 mg protein/mL, 1 mmol/L NADPH, 37° C., 30 minutes
Procedure: Using a commercially available pooled human liver microsomes, a compound of the present invention is reacted for a constant time, a remaining rate is calculated by comparing a reacted sample and an unreacted sample, thereby, a degree of metabolism in liver was assessed.
A reaction was performed (oxidative reaction) at 37° C. for 0 minute or 30 minutes in the presence of 1 mmol/L NADPH in 0.2 mL of a buffer (50 mmol/L Tris-HCl pH 7.4, 150 mmol/L potassium chloride, 10 mmol/L magnesium chloride) containing 0.5 mg protein/mL of human liver microsomes. After the reaction, 50 μL of the reaction solution was added to 100 μL of a methanol/acetonitrile=1/1 (v/v), mixed and centrifuged at 3000 rpm for 15 minutes. The compound of the present invention in the supernatant was quantified by LC/MS/MS, and a remaining amount of the compound of the present invention after the reaction was calculated, letting a compound amount at 0 minute reaction time to be 100%.

CYP3A4 = biological target: T3, CYP3A4 (Homo sapiens, UniProt P08684); experiment: CYP inhibition test, terfenadine hydroxylation; format: in vitro ADME; conditions: pooled human liver microsomes, 1 μmol/L terfenadine
T3 construct: The commercially available pooled human liver microsomes were used; from tissue; host or cells: pooled human liver microsomes
T3 sequence (P08684 whole entry): as the sequence (P08684 whole entry) above
Source text: (§1) The test is to assess the inhibitory effect of a compound of the present invention towards typical substrate metabolism reactions on CYP enzymes in human liver microsomes. The commercially available pooled human liver microsomes were used.
(§2) The marker reactions on human main five CYP enzymes (CYP1A2, 2C9, 2C19, 2D6, and 3A4) were used as follows; 7-ethoxyresorufin O-deethylation (CYP1A2), tolbutamide methyl-hydroxylation (CYP2C9), mephenyloin 4′-hydroxylation (CYP2C19), dextromethorphan O-demethylation (CYP2D6), and terfenadine hydroxylation (CYP3A4 […]
(§3) Five kinds of substrates, human liver microsomes, or a compound of the present invention in 50 mmol/L Hepes buffer was added to a 96-well plate at the composition as described above as a reaction solution. […] After the centrifugation at 3000 rpm for 15 minutes, resorufin (CYP1A2 metabolite) in the supernatant was quantified by a fluorescent plate reader, and hydroxytolbutamide (CYP2C9 metabolite), 4′-hydroxymephenyloin (CYP2C19 metabolite), dextrorphan (CYP2D6 metabolite), and terfenadine alcohol metabolite (CYP3A4 metabolite) in the supernatant were quantified by LC/MS/MS. […]

CYP2C9 = biological target: T4, CYP2C9 (Homo sapiens, UniProt P11712); experiment: CYP inhibition test, tolbutamide methyl-hydroxylation; format: in vitro ADME; conditions: pooled human liver microsomes, 100 μmol/L tolbutamide
T4 construct: The commercially available pooled human liver microsomes were used; from tissue; host or cells: pooled human liver microsomes
T4 sequence (P11712 whole entry): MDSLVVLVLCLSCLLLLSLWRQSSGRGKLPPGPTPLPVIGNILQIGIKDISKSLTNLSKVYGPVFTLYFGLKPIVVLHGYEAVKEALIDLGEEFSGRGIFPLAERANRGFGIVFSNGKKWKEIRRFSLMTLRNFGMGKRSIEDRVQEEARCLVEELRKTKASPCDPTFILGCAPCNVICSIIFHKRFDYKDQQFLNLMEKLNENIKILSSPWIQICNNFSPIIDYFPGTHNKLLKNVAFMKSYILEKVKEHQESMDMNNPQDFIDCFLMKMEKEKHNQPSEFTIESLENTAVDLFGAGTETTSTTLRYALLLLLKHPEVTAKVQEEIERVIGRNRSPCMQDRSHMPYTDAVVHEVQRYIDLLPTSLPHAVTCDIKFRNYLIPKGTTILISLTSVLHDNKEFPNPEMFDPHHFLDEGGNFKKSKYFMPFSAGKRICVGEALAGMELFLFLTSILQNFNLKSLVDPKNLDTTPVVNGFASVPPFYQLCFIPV
Source text: as §1, §2, §3

CYP1A2 = biological target: T5, CYP1A2 (Homo sapiens, UniProt P05177); experiment: CYP inhibition test, 7-ethoxyresorufin O-deethylation; format: in vitro ADME; conditions: pooled human liver microsomes, 0.5 μmol/L ethoxyresorufin
T5 construct: The commercially available pooled human liver microsomes were used; from tissue; host or cells: pooled human liver microsomes
T5 sequence (P05177 1-516): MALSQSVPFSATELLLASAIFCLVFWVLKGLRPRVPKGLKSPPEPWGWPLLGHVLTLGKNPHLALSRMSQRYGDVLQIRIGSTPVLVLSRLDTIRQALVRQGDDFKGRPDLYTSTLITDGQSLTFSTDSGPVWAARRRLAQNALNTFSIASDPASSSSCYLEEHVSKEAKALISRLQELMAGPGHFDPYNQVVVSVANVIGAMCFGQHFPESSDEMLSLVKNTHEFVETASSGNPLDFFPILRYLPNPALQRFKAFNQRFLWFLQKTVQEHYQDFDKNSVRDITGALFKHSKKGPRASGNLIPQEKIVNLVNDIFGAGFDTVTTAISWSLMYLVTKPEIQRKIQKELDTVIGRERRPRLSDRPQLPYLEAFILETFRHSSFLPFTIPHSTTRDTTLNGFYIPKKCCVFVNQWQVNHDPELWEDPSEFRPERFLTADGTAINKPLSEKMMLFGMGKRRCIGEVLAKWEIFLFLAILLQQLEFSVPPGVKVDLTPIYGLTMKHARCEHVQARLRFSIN
Source text: as §1, §2, §3

CYP2C19 = biological target: T6, CYP2C19 (Homo sapiens, UniProt P33261); experiment: CYP inhibition test, mephenyloin 4'-hydroxylation; format: in vitro ADME; conditions: pooled human liver microsomes, 50 μmol/L S-mephenyloin
T6 construct: The commercially available pooled human liver microsomes were used; from tissue; host or cells: pooled human liver microsomes
T6 sequence (P33261 whole entry): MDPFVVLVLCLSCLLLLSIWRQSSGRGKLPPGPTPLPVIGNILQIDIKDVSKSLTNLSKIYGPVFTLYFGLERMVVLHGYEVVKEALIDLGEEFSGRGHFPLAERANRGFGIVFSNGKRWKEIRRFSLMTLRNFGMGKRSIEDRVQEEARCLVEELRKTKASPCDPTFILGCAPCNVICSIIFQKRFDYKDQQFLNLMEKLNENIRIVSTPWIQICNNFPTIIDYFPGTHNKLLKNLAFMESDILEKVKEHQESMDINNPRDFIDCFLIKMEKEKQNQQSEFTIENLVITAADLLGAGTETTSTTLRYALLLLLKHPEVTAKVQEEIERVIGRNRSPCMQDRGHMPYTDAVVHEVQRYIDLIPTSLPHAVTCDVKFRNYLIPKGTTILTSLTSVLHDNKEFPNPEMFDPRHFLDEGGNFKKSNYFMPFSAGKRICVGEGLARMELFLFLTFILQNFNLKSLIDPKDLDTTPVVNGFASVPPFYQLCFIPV
Source text: as §1, §2, §3

CYP2D6 = biological target: T7, CYP2D6 (Homo sapiens, UniProt P10635); experiment: CYP inhibition test, dextromethorphan O-demethylation; format: in vitro ADME; conditions: pooled human liver microsomes, 5 μmol/L dextromethorphan
T7 construct: The commercially available pooled human liver microsomes were used; from tissue; host or cells: pooled human liver microsomes
T7 sequence (P10635 whole entry): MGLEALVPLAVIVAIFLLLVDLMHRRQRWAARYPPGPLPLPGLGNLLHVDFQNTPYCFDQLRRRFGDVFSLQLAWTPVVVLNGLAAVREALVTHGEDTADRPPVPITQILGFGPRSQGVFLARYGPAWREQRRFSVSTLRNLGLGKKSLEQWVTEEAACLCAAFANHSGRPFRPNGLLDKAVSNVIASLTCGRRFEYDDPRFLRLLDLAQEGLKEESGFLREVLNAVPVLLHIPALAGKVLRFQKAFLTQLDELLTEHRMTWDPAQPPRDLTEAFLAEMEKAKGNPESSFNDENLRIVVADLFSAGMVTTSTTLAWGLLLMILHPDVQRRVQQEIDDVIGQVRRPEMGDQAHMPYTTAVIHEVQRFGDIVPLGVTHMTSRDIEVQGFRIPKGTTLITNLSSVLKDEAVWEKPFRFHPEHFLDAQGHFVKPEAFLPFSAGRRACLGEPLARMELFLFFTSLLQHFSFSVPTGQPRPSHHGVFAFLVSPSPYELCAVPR
Source text: as §1, §2, §3

CYP3A4 MBI: difference of IC50 without and with preincubation [1]: (−) (the difference is 3 μM or less)
Structure (SMILES): CC1=C[C@@](C)(c2cc(NC(=O)c3cnc(OCF)cn3)ccc2F)N=C(N)O1 [Compound I-1]

IC50 (Recombinant human BACE1): 5.3 nM
Structure (SMILES): C[C@@]1(c2cc(NC(=O)c3ccc(C#N)cn3)ccc2F)C=C(C(F)F)OC(N)=N1 [Compound I-2]

IC50 (Recombinant human BACE1): 10.6 nM
Structure (SMILES): C[C@@]1(c2cc(NC(=O)c3ccc(C#N)cn3)ccc2F)C=C(CO)OC(N)=N1 [Compound I-4]

solubility at 4 h [2]: > 40 µM
Structure (SMILES): CC1=C[C@@](C)(c2cc(NC(=O)c3ccc(C(F)F)cn3)ccc2F)N=C(N)O1 [Compound I-5]

IC50 (Recombinant human BACE1): 10.3 nM
remaining amount of the compound after the reaction [3]: 99%
Structure (SMILES): C[C@@]1(c2cc(NC(=O)c3cnc(OC(F)F)cn3)ccc2F)C=COC(N)=N1 [Compound I-8]

IC50 (CYP3A4): > 20000 nM
IC50 (CYP2C9): > 20000 nM
IC50 (CYP1A2): > 20000 nM
IC50 (CYP2C19): > 20000 nM
IC50 (CYP2D6): > 20000 nM
Structure (SMILES): C[C@@]1(c2cc(NC(=O)c3ncc(C#N)cc3F)ccc2F)C=COC(N)=N1 [Compound I-9]

IC50 (Recombinant human BACE1): 64 nM
Structure (SMILES): CC1=C[C@@](C)(c2cc(NC(=O)c3ccc(C#N)cn3)ccc2Cl)N=C(N)O1 [Compound I-11]
